{"source": "patent US20150216925A1", "about": "“AGENT FOR PREVENTING OR AM[…] ENDOTHELIAL MALFUNCTION” (KYOWA HAKKO BIO CO., LTD., priority 2012, published 2015)", "tested_on": "normal human umbilical vein endothelial cell (HUVEC)", "assay": "NO production (nitrite in culture supernatant) in HUVEC, HPLC", "format": "cell-based", "conditions": "24-hour culture, FIG. 1", "procedure": "A normal human umbilical vein endothelial cell (HUVEC) line available from Clonetics (SanDiego, Calif., USA) was used with EGM-2 Bullet Kit medium containing 2% FBS (Takara Bio). The cells were cultured in at 37° C., in 5% CO2 incubator, and used for experiment after 4 to 6 passages. Citrulline and reduced glutathione were obtained from Kyowa Hakko Bio.\nA cell suspension (0.45 mL) with the adjusted initial cell concentration of 5×10^5 cells/mL was inoculated in a 24-well plate (IWAKI). After 40-hour culture, the media were replaced with those containing citrulline (final concentration 0.3 mM: citrulline group), reduced glutathione (final concentration 1 mM: high-dose glutathione group), and a citrulline and reduced glutathione mixture (citrulline final concentration 0.3 mM; glutathione final concentration 0.3 mM: citrulline+low-dose glutathione group). Media with the sole addition of solvent (PBS) were used as a control group. After 24-hour culture, the cell culture (100 μL) was centrifuged at 12,000 rpm for 10 minutes, and the concentration of nitrite (NO2), which is the stable NO metabolite, in culture supernatant was quantified by HPLC (ENO-20, EICOM).", "data": [{"smiles": "NC(=O)NCCC[C@H](N)C(=O)O", "note": "[citrulline, L-citrulline]", "values": [{"measurement": "effect on NO production (nitrite NO2 concentration in medium)", "setting": "citrulline final concentration 0.3 mM", "result": "no effect"}]}, {"smiles": "N[C@@H](CCC(=O)N[C@@H](CS)C(=O)NCC(=O)O)C(=O)O", "note": "[glutathione, γ-L-Glu-L-Cys-Gly]", "values": [{"measurement": "effect on NO production (nitrite NO2 concentration in medium)", "setting": "reduced glutathione final concentration 1 mM (high-dose)", "result": "no effect"}]}]}
